# From US8192962B2, “Processes for detecting toxic substances” (Daikin Industries, Ltd., priority 2001, dated 2012)
# Tested on: Transport facilitation protein genes
# Assay: DNA chip mRNA expression in yeast, transport facilitation protein genes (Table 5)
# Format: cell-based, Saccharomyces cerevisiae S288C
# Outline: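 Untreated cultures served as reference for log-phase S288C yeast given a growth-inhibiting, non-lethal toxicant dose for 2 h at 25° C. in YPD. Gene expression was measured on a whole-genome DNA chip from Cy3/Cy5-labeled cDNA.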
structure (smiles),measurement,setting,value
"[Cl][Pb][Cl] [(4), PbCl2]",The level of expressed mRNA in the presence of chemical substance/The level of expressed mRNA in the absence of chemical substance,yeast gene YBL030C,0.9
same,The level of expressed mRNA in the presence of chemical substance/The level of expressed mRNA in the absence of chemical substance,yeast gene YBL099W,1.4
same,The level of expressed mRNA in the presence of chemical substance/The level of expressed mRNA in the absence of chemical substance,yeast gene YBR052C,2.6
same,The level of expressed mRNA in the presence of chemical substance/The level of expressed mRNA in the absence of chemical substance,yeast gene YBR068C,2.5
same,The level of expressed mRNA in the presence of chemical substance/The level of expressed mRNA in the absence of chemical substance,yeast gene YBR127C,1.1
same,The level of expressed mRNA in the presence of chemical substance/The level of expressed mRNA in the absence of chemical substance,yeast gene YBR132C,1.8
same,The level of expressed mRNA in the presence of chemical substance/The level of expressed mRNA in the absence of chemical substance,yeast gene YBR207W,2.0
same,The level of expressed mRNA in the presence of chemical substance/The level of expressed mRNA in the absence of chemical substance,yeast gene YBR293W,1.8
same,The level of expressed mRNA in the presence of chemical substance/The level of expressed mRNA in the absence of chemical substance,yeast gene YBR294W,2.6
same,The level of expressed mRNA in the presence of chemical substance/The level of expressed mRNA in the absence of chemical substance,yeast gene YBR295W,1.1
same,The level of expressed mRNA in the presence of chemical substance/The level of expressed mRNA in the absence of chemical substance,yeast gene YBR298C,2.3
same,The level of expressed mRNA in the presence of chemical substance/The level of expressed mRNA in the absence of chemical substance,yeast gene YCL025C,1.7
same,The level of expressed mRNA in the presence of chemical substance/The level of expressed mRNA in the absence of chemical substance,yeast gene YCL038C,1.6
same,The level of expressed mRNA in the presence of chemical substance/The level of expressed mRNA in the absence of chemical substance,yeast gene YCR037C,0.8
same,The level of expressed mRNA in the presence of chemical substance/The level of expressed mRNA in the absence of chemical substance,yeast gene YCR098C,2.0
same,The level of expressed mRNA in the presence of chemical substance/The level of expressed mRNA in the absence of chemical substance,yeast gene YDL128W,1.0
same,The level of expressed mRNA in the presence of chemical substance/The level of expressed mRNA in the absence of chemical substance,yeast gene YDL198C,1.4
same,The level of expressed mRNA in the presence of chemical substance/The level of expressed mRNA in the absence of chemical substance,yeast gene YDL210W,1.1
same,The level of expressed mRNA in the presence of chemical substance/The level of expressed mRNA in the absence of chemical substance,yeast gene YDL245C,2.2
same,The level of expressed mRNA in the presence of chemical substance/The level of expressed mRNA in the absence of chemical substance,yeast gene YDR038C,0.9
same,The level of expressed mRNA in the presence of chemical substance/The level of expressed mRNA in the absence of chemical substance,yeast gene YDR039C,0.9
same,The level of expressed mRNA in the presence of chemical substance/The level of expressed mRNA in the absence of chemical substance,yeast gene YDR086C,1.4
same,The level of expressed mRNA in the presence of chemical substance/The level of expressed mRNA in the absence of chemical substance,yeast gene YDR270W,1.3
same,The level of expressed mRNA in the presence of chemical substance/The level of expressed mRNA in the absence of chemical substance,yeast gene YDR298C,1.3
same,The level of expressed mRNA in the presence of chemical substance/The level of expressed mRNA in the absence of chemical substance,yeast gene YDR342C,5.7
same,The level of expressed mRNA in the presence of chemical substance/The level of expressed mRNA in the absence of chemical substance,yeast gene YDR343C,4.6
same,The level of expressed mRNA in the presence of chemical substance/The level of expressed mRNA in the absence of chemical substance,yeast gene YDR345C,2.6
same,The level of expressed mRNA in the presence of chemical substance/The level of expressed mRNA in the absence of chemical substance,yeast gene YDR387C,2.2
same,The level of expressed mRNA in the presence of chemical substance/The level of expressed mRNA in the absence of chemical substance,yeast gene YDR497C,1.3
same,The level of expressed mRNA in the presence of chemical substance/The level of expressed mRNA in the absence of chemical substance,yeast gene YEL027W,1.1
same,The level of expressed mRNA in the presence of chemical substance/The level of expressed mRNA in the absence of chemical substance,yeast gene YEL063C,1.3
same,The level of expressed mRNA in the presence of chemical substance/The level of expressed mRNA in the absence of chemical substance,yeast gene YEL065W,0.4
same,The level of expressed mRNA in the presence of chemical substance/The level of expressed mRNA in the absence of chemical substance,yeast gene YER053C,1.7
same,The level of expressed mRNA in the presence of chemical substance/The level of expressed mRNA in the absence of chemical substance,yeast gene YFL011W,3.3
same,The level of expressed mRNA in the presence of chemical substance/The level of expressed mRNA in the absence of chemical substance,yeast gene YFL041W,1.2
same,The level of expressed mRNA in the presence of chemical substance/The level of expressed mRNA in the absence of chemical substance,yeast gene YFL050C,2.2
same,The level of expressed mRNA in the presence of chemical substance/The level of expressed mRNA in the absence of chemical substance,yeast gene YFL054C,2.2
same,The level of expressed mRNA in the presence of chemical substance/The level of expressed mRNA in the absence of chemical substance,yeast gene YGL006W,2.6
same,The level of expressed mRNA in the presence of chemical substance/The level of expressed mRNA in the absence of chemical substance,yeast gene YGL008C,0.9
same,The level of expressed mRNA in the presence of chemical substance/The level of expressed mRNA in the absence of chemical substance,yeast gene YGL104C,1.8
same,The level of expressed mRNA in the presence of chemical substance/The level of expressed mRNA in the absence of chemical substance,yeast gene YGL167C,1.3
same,The level of expressed mRNA in the presence of chemical substance/The level of expressed mRNA in the absence of chemical substance,yeast gene YGL255W,0.8
same,The level of expressed mRNA in the presence of chemical substance/The level of expressed mRNA in the absence of chemical substance,yeast gene YGR055W,0.7
same,The level of expressed mRNA in the presence of chemical substance/The level of expressed mRNA in the absence of chemical substance,yeast gene YGR065C,1.1
same,The level of expressed mRNA in the presence of chemical substance/The level of expressed mRNA in the absence of chemical substance,yeast gene YGR082W,1.0
same,The level of expressed mRNA in the presence of chemical substance/The level of expressed mRNA in the absence of chemical substance,yeast gene YGR096W,4.6
same,The level of expressed mRNA in the presence of chemical substance/The level of expressed mRNA in the absence of chemical substance,yeast gene YGR138C,1.2
same,The level of expressed mRNA in the presence of chemical substance/The level of expressed mRNA in the absence of chemical substance,yeast gene YGR191W,1.5
same,The level of expressed mRNA in the presence of chemical substance/The level of expressed mRNA in the absence of chemical substance,yeast gene YGR197C,1.0
same,The level of expressed mRNA in the presence of chemical substance/The level of expressed mRNA in the absence of chemical substance,yeast gene YGR224W,1.2
